The source of these data is US7309484B2, “Compositions and methods for screening antibacterial compounds” (priority 2003, dated 2007).

For data set [1], the system named is liaI expression (liaI::pMUTIN lacZ fusion, strain BFS2470; also liaH::pMUTIN, BFS2469). Put plainly: Disk-diffusion assay, blue ring on X-Gal plates. As to Disk-diffusion assay: key: −: no induction; +: induction of yvql expression. Format: cell-based, Bacillus subtilis. As to conditions: for disk-diffusion assay: qualitative screen of β-Galactosidase activity, blue ring at edge of zone of inhibition, LB plates with X-Gal, strain BFS2470; for induction of liaI / liaH expression, in words: strains BFS2469 and BFS2470. The text has this:
The pMUTIN-insertion results in a disruption of the targeted gene and generates a transcriptional fusion to lacZ thereby allowing detection of both antibiotic sensitivity (as defined by the zone of inhibition around the disk) and inducibility (by the formation of a blue ring at the edge of the zone of inhibition) (Cao et al., 2002, Mol Microbiol. 45: 1267-1276, the entire teaching of which is incorporated herein). The disruption of liaI and liaH had no effect on the sensitivity of the mutants to any of the antibiotics tested. […] Equivalent levels of induction were also observed with the PliaI-74-cat-lacZ fragment (in HB0950), albeit with lower fold-changes (See, Table 2). While the mode of action is different for these antibiotics, all four interfere with the lipid II cycle, essential for the biosynthesis of cell envelope polymers (Lazar et al., 2002, Curr. Opin. Chem. Biol. 6: 786-93).
PliaI induction assays: Screening for liaI induction was done by disk diffusion assay essentially as described (Cai, S. J., and M. Inouye, 2002, J Biol Chem 277:24155-61). B. subtilis strains were inoculated from a fresh overnight LB agar plate and grown to mid-log phase (OD600 ˜0.45) at 37 YC with shaking. 20 μl of the culture was mixed with 3 ml of 0.7% soft LB agar (containing 40 μg of X-Gal per plate) and poured onto the bottom agar. After cooling and drying of the plates (20 min at 37 YC), filter paper disks (6 mm diameter) carrying 5 μl of stock solution (antibiotics normally 100 mg/ml; lysozyme 10 mg/ml; tunicamycin, surfactants, uncouplers 5 mg/ml each; inhibitors of protein biosynthesis as given in the media and growth conditions section) were placed on top of the agar. The plates were incubated at 37 YC overnight. After 12-24 h incubation, the plates were scored for the appearance of a blue ring at or near the edge of the zone of growth inhibition produced by the diffusion of the antibiotics from the filter disk.

Data set [2] concerns B. subtilis strain BFS2470. Put plainly: Concentration-dependent induction/killing experiments. The format is cell-based, Bacillus subtilis. As to conditions: for lacZ-expression at higher concentration: FIG. 7a; for lacZ-expression at higher concentration / effect on cell growth / optical density: in words; for effect on cell growth / optical density: high concentrations, FIG. 7b; for antibiotic concentration at maximum induction of liaI: β-galactosidase assay after 30 min, 0.01 to 100 μg/ml tested. As for the experimental part:
Concentration-dependent induction/killing experiments were performed for bacitracin, nisin, ramoplanin and vancomycin as shown in FIG. 7. In all four cases the induction of liaI occurred in a concentration-dependent manner (FIG. 7a), reaching a maximum at an antibiotic concentration of about 10 μg/ml (1 μg/mL for vancomycin). The time of antibiotic addition is indicated by an arrow. The antibiotic concentrations affecting the induction of PliaI according to the β3-galactosidase assay are indicated by white symbols. The corresponding concentrations are: bacitracin ([…]), nisin (50, 70 and 100 μg/ml), ramoplanin (20, 50 and 100 μg/mL) and vancomycin (5, 10, 50 and 100 μg/mL).
This finding correlates well with the bactericidal effects of these antibiotics as inferred from the dramatic decrease of optical density: there is little effect of bacitracin and vancomycin on cell growth during the first 30-60 min after addition even at high concentrations (FIG. 7b).
The cultures were incubated with aeration at 37° C.

In data set [3] the test system is liaI expression (pMUTIN-derived lacZ fusion, strain BFS2470). Put plainly: microbe, parasite or virus in culture. As to conditions: for fold induction of liaI expression: text to FIG. 4: bacitracin 100 μg/mL, tunicamycin 50 μg/mL, vancomycin 2 μg/mL, 30 minutes, nisin, ramoplanin results not shown. The procedure: Disc-diffusion assays were used to determine the spectrum of stimuli that induce the expression of liaIH. The B. subtilis strains BFS2469 and BFS2470 (Table 2), harboring pMUTIN-insertions in liaH and liaI respectively, were plated on a medium containing the indicator dye X-gal and overlaid with filter disks impregnated with various antibiotics that interfere with cell wall biosynthesis. Specifically, cultures of B. subtilis strain BFS2469 (liaH::pMUTIN) and BFS2470 (liaI::pMUTIN) were grown in LB medium to midlog phase, 2 mL for the un-induced control sample were harvested, and the remaining culture was induced with the three antibiotics for 30 minutes, before the cells of the induced sample were harvested. All samples were taken in duplicate from two independent cultures and the standard deviation is indicated by error bars.
Measurement of induction by β-galactosidase assays: Cells were inoculated from fresh overnight LB-plates and grown in LB-medium at 37° C. with aeration until they reached an O.D.600=0.45. 2 mL of cultures were harvested (un-induced control) and the cell pellets were shock frozen and kept at −70° C. The cultures were induced by addition of antibiotics to a final concentration of: bacitracin (100 μg/mL), tunicamycin (50 μg/mL) or vancomycin (2 μg/mL) and incubated for additional 30 min at 37° C. 2 mL of the cultures were harvested as described above (induced sample). The pellets were re-suspended in 1 mL of working buffer and assayed for β-galactosidase activity as described with normalization to cell density (Miller, 1972, the entire teaching of which is incorporated herein by reference).
For quantitative measurements of β-galactosidase activity, cells were inoculated from fresh overnight LB-plates and grown in LB medium at 37 YC with aeration until they reached an OD600 of 0.45. 2 ml of the culture was harvested (un-induced control) and the cell pellets were frozen and kept at −80 YC. The cultures were induced by addition of the compound to be tested to the final concentration as described in the individual figure legends and incubated for an additional 30 min at 37 YC. 2 ml of the cultures were harvested as described above. The pellets were re-suspended in 1 ml of working buffer (60 mM Na2HPO4, 40 mMNaH2PO4, 10 mM KCl, 1 mM MgSO4, 4 mM DTT) and assayed for β-galactosidase activity as described with normalization to cell density Kobayashi, K., et al., 2001, J Bacteriol 183:7365-7370). […] A sample was taken after 30 min for β-galactosidase assay and the turbidity of the remaining culture was measured for at least 5 hours to monitor the concentration-dependent effects of the antibiotics on cell growth.

Data set [4] deals with liaI expression in B. subtilis. As to conditions: 10 min after vancomycin addition; cited from earlier work.

As to `CCCCCCCCCCCC[N+](C)(C)Cc1ccccc1.[Br-]` [BDMDDA-Br, Benzyldimethyldodecylammonium bromide], the disk-diffusion assay entry in data set [1] is recorded as “−”.

Regarding `CN[C@@H]1[C@H](O)[C@H](NC)[C@H]2O[C@@]3(O)C(=O)C[C@@H](C)O[C@H]3O[C@@H]2[C@H]1O` [spectinomycin], the disk-diffusion assay result in data set [1] is on record as “−”.

With `O=C(N[C@H](CO)[C@H](O)c1ccc([N+](=O)[O-])cc1)C(Cl)Cl` [Chloramphenicol], the disk-diffusion assay entry in data set [1] is on record as “−”.

For Ramoplanin, in data set [1], the disk-diffusion assay result is reported as “+” and the “induction of liaI / liaH expression, in words” value is given as “induced”. In addition, in data set [2], the “lacZ-expression at higher concentration” value is on record as “strong decrease down to un-induced levels”, the “effect on cell growth / optical density” value is “rapid cell lysis” and the “antibiotic concentration at maximum induction of liaI” value was “about 10 μg/ml”. Further, in data set [3], the “fold induction of liaI expression” value worked out at 420 fold. Consider `CCCCCCCCCCCCOS(=O)(=O)[O-].[Na+]` [SDS, sodium dodecylsulfate], for which the disk-diffusion assay result in data set [1] was “−”. `N[C@@H]1CONC1=O` [D-cycloserin]: in data set [1], the disk-diffusion assay entry is given as “−”. The same measure, in the same setting: the entry for `CO[C@H]1/C=C/O[C@@]2(C)Oc3c(C)c(O)c4c(O)c(c(/C=N/N5CCN(C)CC5)c(O)c4c3C2=O)NC(=O)/C(C)=C\C=C\[C@H](C)[C@H](O)[C@@H](C)[C@@H](O)[C@@H](C)[C@H](OC(C)=O)[C@@H]1C` [rifampicin] is “−”; for Triton X100 it is “−”.

As for `CN(C)[C@@H]1C(O)=C(C(N)=O)C(=O)[C@@]2(O)C(O)=C3C(=O)c4c(O)cccc4[C@@](C)(O)[C@H]3C[C@@H]12` [tetracycline], the disk-diffusion assay entry in data set [1] is on record as “−”. On to `CN[C@H](CC(C)C)C(=O)N[C@H]1C(=O)N[C@@H](CC(N)=O)C(=O)N[C@H]2C(=O)N[C@H]3C(=O)N[C@H](C(=O)N[C@H](C(=O)O)c4cc(O)cc(O)c4-c4cc3ccc4O)[C@H](O)c3ccc(c(Cl)c3)Oc3cc2cc(c3O[C@@H]2O[C@H](CO)[C@@H](O)[C@H](O)[C@H]2O[C@H]2C[C@](C)(N)[C@H](O)[C@H](C)O2)Oc2ccc(cc2Cl)[C@H]1O` [Vancomycin], for which, in data set [1], the disk-diffusion assay result is “+” and the “induction of liaI / liaH expression, in words” value is recorded as “induced”. In addition, in data set [2], the “lacZ-expression at higher concentration” value is listed as “remained elevated”, the “effect on cell growth / optical density” value is on record as “little effect” and the “antibiotic concentration at maximum induction of liaI” value is around 1 µg/mL. In addition, in data set [4], the “increase in liaI expression level” value is recorded as “more than 100 fold”. The fold induction at 2 µg/mL in data set [3] (Bacillus subtilis, 0.5 h, read-out: fold induction of liaI expression) is around 65. `CCCCCCCCCCCCCCCC[N+](C)(C)Cc1ccccc1.[Cl-]` [BDMHDA-Cl, Benzyldimethylhexadecylammonium chloride]: in data set [1], the disk-diffusion assay entry is reported as “+” and the “induction of liaI / liaH expression, in words” value is listed as “moderately induced”. Turning to `[H]/N=C(/N)N[C@H]1[C@H](O)[C@@H](O)[C@H](O[C@@H]2O[C@@H](C)[C@](O)(C=O)[C@H]2O[C@@H]2O[C@@H](CO)[C@H](O)[C@@H](O)[C@@H]2NC)[C@@H](N/C(N)=N\[H])[C@@H]1O` [streptomycin], in data set [1], the disk-diffusion assay result is recorded as “−”. Same read-out and setting: the entry for `CC1(C)S[C@@H]2[C@H](NC(=O)Cc3ccccc3)C(=O)N2[C@H]1C(=O)O` [Penicillin G] is “−”; for Moenomycin it is “−”. `O=[N+]([O-])c1ccc(O)c([N+](=O)[O-])c1` [DNP]: in data set [1], the disk-diffusion assay result was “−” and the “induction of liaI / liaH expression, in words” value is “neither elevated liaIH expression”. Take `CC1(C)S[C@@H]2[C@H](NC(=O)[C@H](N)c3ccccc3)C(=O)N2[C@H]1C(=O)O` [Ampicillin]: the disk-diffusion assay entry in data set [1] is “−”.

In the case of Polymyxin B, in data set [1], the disk-diffusion assay entry is reported as “−”. Consider `CCCCCCCCCCCCCCCC[N+](C)(C)C.[Br-]` [HDTMA-Br, Hexadecyltrimethylammonium], for which the disk-diffusion assay entry in data set [1] is “−”. On to Tunicamycin, for which the disk-diffusion assay entry in data set [1] is reported as “+”. Besides, the “fold induction of liaI expression” value in data set [3] is reported as “three-fold”.

For the molecule Lysozyme, in data set [1], the disk-diffusion assay entry is reported as “−” and the “induction of liaI / liaH expression, in words” value was “ineffective as an inducer”.

In the case of `N#CC(C#N)=NNc1cccc(Cl)c1` [CCCP], in data set [1], the disk-diffusion assay entry is reported as “−” and the “induction of liaI / liaH expression, in words” value is recorded as “neither elevated liaIH expression”. As to `NC[C@H]1O[C@H](O[C@H]2[C@H](O)[C@@H](O[C@H]3O[C@H](CO)[C@@H](O)[C@H](N)[C@H]3O)[C@H](N)C[C@@H]2N)[C@H](O)[C@@H](O)[C@@H]1O` [kanamycin], in data set [1], the disk-diffusion assay result was “−”.
